{"source": "paper PMC6321601", "about": "(Molecules, 2018)", "key": {"[1]": {"test_system": "L-O2 human normal liver cells", "experiment": "MTT assay, toxicity against L-O2 normal cells", "format": "cell-based", "conditions": "Homo sapiens, 72 h incubation, mean of three independent experiments", "experimental": "(§1) HepG-2 human hepatocellular carcinoma cells and L-O2 human normal liver cells were maintained in DMEM culture medium supplemented with 10% FBS at 37 °C under a humidified atmosphere with 5% CO2.\n(§2) HepG-2 and L-O2 cells in logarithmic growth phase were seeded into a 96-well plate at 5 × 10^3/well/200 µL. After 12 h, compounds at different concentrations were added and incubated for 72 h at 37 °C, 5% CO2. Then, 20 µL MTT (5 mg/mL) was added into each well and incubated for 4 h. The supernatant was discarded, and the precipitate was dissolved with DMSO. The absorbance of the optical density (OD) at 570 nm was detected using a microplate reader and the IC50 was calculated with GraphPad Prism 5."}, "[2]": {"test_system": "HepG-2 human hepatocellular carcinoma cells", "experiment": "MTT assay, proliferation of HepG-2 cells", "format": "cell-based", "conditions": "Homo sapiens, HepG2, 72 h incubation, mean of three independent experiments", "experimental": "as §1, §2"}}, "data": [{"compound": "COc1cccc2c1C(=O)c1c(O)c3c(c(O)c1C2=O)C[C@@](O)(C(=O)CO)C[C@@H]3O[C@H]1C[C@H](N)[C@H](O)[C@H](C)O1", "note": "[ADR, adriamycin, reference compound]", "values": [{"measurement": "IC50", "setting": "[1]", "value": "41 ± 13", "unit": "nM"}, {"measurement": "IC50", "setting": "[2]", "value": "0.3 ± 0.05", "unit": "µM"}]}, {"compound": "CCC(=O)O[C@@H]1C[C@@]2(C)C3CC=C4C(C[C@H](O)C(=O)C4(C)C)[C@]3(C)C(=O)C[C@]2(C)C1[C@@](C)(O)C(=O)/C=C/C(C)(C)OC(C)=O", "note": "(stereo partly drawn) [Compound 3a, (2S,9R,13R,14S,16R)-17-((R,E)-6-Acetoxy-2-hydroxy-6-methyl-3-oxohept-4-en-2-yl)-2-hydroxy-4,4,9,13,14-pentamethyl-3,11-dioxo-2,3,4,7,8,9,10,11,12,13,14,15,16,17-tetradecahydro-1H-cyclopenta[a]phenanthren-16-yl propionate]", "values": [{"measurement": "IC50", "setting": "[1]", "value": "1020 ± 580", "unit": "nM"}, {"measurement": "IC50", "setting": "[2]", "value": "1.01 ± 0.04", "unit": "µM"}]}, {"compound": "CC(=O)OC(C)(C)/C=C/C(=O)[C@](C)(O)C1[C@H](OC(=O)C2CCC2)C[C@@]2(C)C3CC=C4C(CC(O)C(=O)C4(C)C)[C@]3(C)C(=O)C[C@]12C", "note": "(stereo partly drawn) [Compound 3b, (9R,13R,14S,16R)-17-((R,E)-6-Acetoxy-2-hydroxy-6-methyl-3-oxohept-4-en-2-yl)-2-hydroxy-4,4,9,13,14-pentamethyl-3,11-dioxo-2,3,4,7,8,9,10,11,12,13,14,15,16,17-tetradecahydro-1H-cyclopenta[a]phenanthren-16-yl cyclobutanecarboxylate]", "values": [{"measurement": "IC50", "setting": "[1]", "value": "520 ± 80", "unit": "nM"}, {"measurement": "IC50", "setting": "[2]", "value": "0.54 ± 0.04", "unit": "µM"}]}, {"compound": "CC(=O)OC(C)(C)/C=C/C(=O)[C@](C)(O)C1[C@H](OC(=O)C2CCCC2)C[C@@]2(C)C3CC=C4C(C[C@H](O)C(=O)C4(C)C)[C@]3(C)C(=O)C[C@]12C", "note": "(stereo partly drawn) [Compound 3c, (2S,9R,13R,14S,16R)-17-((R,E)-6-Acetoxy-2-hydroxy-6-methyl-3-oxohept-4-en-2-yl)-2-hydroxy-4,4,9,13,14-pentamethyl-3,11-dioxo-2,3,4,7,8,9,10,11,12,13,14,15,16,17-tetradecahydro-1H-cyclopenta[a]phenanthren-16-yl cyclopentanecarboxylate]", "values": [{"measurement": "IC50", "setting": "[1]", "value": "2370 ± 90", "unit": "nM"}, {"measurement": "IC50", "setting": "[2]", "value": "2.45 ± 1.75", "unit": "µM"}]}, {"compound": "CC(=O)OC(C)(C)/C=C/C(=O)[C@](C)(O)C1[C@H](OC(=O)CCCCNC(=O)OC(C)(C)C)C[C@@]2(C)C3CC=C4C(C[C@H](O)C(=O)C4(C)C)[C@]3(C)C(=O)C[C@]12C", "note": "(stereo partly drawn) [Compound 3d, (2S,9R,13R,14S,16R)-17-((R,E)-6-Acetoxy-2-hydroxy-6-methyl-3-oxohept-4-en-2-yl)-2-hydroxy-4,4,9,13,14-pentamethyl-3,11-dioxo-2,3,4,7,8,9,10,11,12,13,14,15,16,17-tetradecahydro-1H-cyclopenta[a]phenanthren-16-yl 5-((tert-butoxycarbonyl)amino)pentanoate]", "values": [{"measurement": "IC50", "setting": "[1]", "value": "8010 ± 470", "unit": "nM"}, {"measurement": "IC50", "setting": "[2]", "value": "4.89 ± 0.92", "unit": "µM"}]}, {"compound": "CC(=O)OC(C)(C)/C=C/C(=O)[C@](C)(O)C1[C@H](OC(=O)CCCCN(C)C(=O)OC(C)(C)C)C[C@@]2(C)C3CC=C4C(C[C@H](O)C(=O)C4(C)C)[C@]3(C)C(=O)C[C@]12C", "note": "(stereo partly drawn) [Compound 3e, (2S,9R,13R,14S,16R)-17-((R,E)-6-Acetoxy-2-hydroxy-6-methyl-3-oxohept-4-en-2-yl)-2-hydroxy-4,4,9,13,14-pentamethyl-3,11-dioxo-2,3,4,7,8,9,10,11,12,13,14,15,16,17-tetradecahydro-1H-cyclopenta[a]phenanthren-16-yl 5-((tert-butoxycarbonyl)(methyl)amino)pentanoate]", "values": [{"measurement": "IC50", "setting": "[1]", "value": "5500 ± 2480", "unit": "nM"}, {"measurement": "IC50", "setting": "[2]", "value": "9.28 ± 0.37", "unit": "µM"}]}, {"compound": "CC(=O)OC(C)(C)/C=C/C(=O)[C@](C)(O)C1[C@H](OC(=O)CCCN(C)C(=O)OC(C)(C)C)C[C@@]2(C)C3CC=C4C(C[C@H](O)C(=O)C4(C)C)[C@]3(C)C(=O)C[C@]12C", "note": "(stereo partly drawn) [Compound 3f, (2S,9R,13R,14S,16R)-17-((R,E)-6-Acetoxy-2-hydroxy-6-methyl-3-oxohept-4-en-2-yl)-2-hydroxy-4,4,9,13,14-pentamethyl-3,11-dioxo-2,3,4,7,8,9,10,11,12,13,14,15,16,17-tetradecahydro-1H-cyclopenta[a]phenanthren-16-yl 4-((tert-butoxycarbonyl)(methyl)amino)butanoate]", "values": [{"measurement": "IC50", "setting": "[1]", "value": "410 ± 110", "unit": "nM"}, {"measurement": "IC50", "setting": "[2]", "value": "0.93 ± 0.06", "unit": "µM"}]}, {"compound": "CC(=O)OC(C)(C)/C=C/C(=O)[C@](C)(O)C1[C@H](OC(=O)CCc2ccccc2NC(=O)OC(C)(C)C)C[C@@]2(C)C3CC=C4C(C[C@H](O)C(=O)C4(C)C)[C@]3(C)C(=O)C[C@]12C", "note": "(stereo partly drawn) [Compound 3g, (2S,9R,13R,14S,16R)-17-((R,E)-6-Acetoxy-2-hydroxy-6-methyl-3-oxohept-4-en-2-yl)-2-hydroxy-4,4,9,13,14-pentamethyl-3,11-dioxo-2,3,4,7,8,9,10,11,12,13,14,15,16,17-tetradecahydro-1H-cyclopenta[a]phenanthren-16-yl 3-(2-((tert-butoxycarbonyl)amino)phenyl)propanoate]", "values": [{"measurement": "IC50", "setting": "[1]", "value": "42 ± 1", "unit": "nM"}, {"measurement": "IC50", "setting": "[2]", "value": "0.22 ± 0.11", "unit": "µM"}]}, {"compound": "CC(=O)OC(C)(C)/C=C/C(=O)[C@](C)(O)C1[C@H](OC(=O)c2ccc(C)cc2)C[C@@]2(C)C3CC=C4C(C[C@H](O)C(=O)C4(C)C)[C@]3(C)C(=O)C[C@]12C", "note": "(stereo partly drawn) [Compound 3h, (2S,9R,13R,14S,16R)-17-((R,E)-6-Acetoxy-2-hydroxy-6-methyl-3-oxohept-4-en-2-yl)-2-hydroxy-4,4,9,13,14-pentamethyl-3,11-dioxo-2,3,4,7,8,9,10,11,12,13,14,15,16,17-tetradecahydro-1H-cyclopenta[a]phenanthren-16-yl 4-methylbenzoate]", "values": [{"measurement": "IC50", "setting": "[1]", "value": "6900 ± 1370", "unit": "nM"}, {"measurement": "IC50", "setting": "[2]", "value": "9.62 ± 1.34", "unit": "µM"}]}, {"compound": "CC(=O)OC(C)(C)/C=C/C(=O)[C@](C)(O)C1[C@H](OC(=O)c2ccc(F)cc2)C[C@@]2(C)C3CC=C4C(C[C@H](O)C(=O)C4(C)C)[C@]3(C)C(=O)C[C@]12C", "note": "(stereo partly drawn) [Compound 3i, (2S,9R,13R,14S,16R)-17-((R,E)-6-Acetoxy-2-hydroxy-6-methyl-3-oxohept-4-en-2-yl)-2-hydroxy-4,4,9,13,14-pentamethyl-3,11-dioxo-2,3,4,7,8,9,10,11,12,13,14,15,16,17-tetradecahydro-1H-cyclopenta[a]phenanthren-16-yl 4-fluorobenzoate]", "values": [{"measurement": "IC50", "setting": "[1]", "value": "4420 ± 970", "unit": "nM"}, {"measurement": "IC50", "setting": "[2]", "value": "7.42 ± 0.4", "unit": "µM"}]}, {"compound": "CC(=O)OC(C)(C)/C=C/C(=O)[C@](C)(O)C1[C@H](OC(=O)c2ccc(Cl)cc2)C[C@@]2(C)C3CC=C4C(C[C@H](O)C(=O)C4(C)C)[C@]3(C)C(=O)C[C@]12C", "note": "(stereo partly drawn) [Compound 3j, (2S,9R,13R,14S,16R)-17-((R,E)-6-Acetoxy-2-hydroxy-6-methyl-3-oxohept-4-en-2-yl)-2-hydroxy-4,4,9,13,14-pentamethyl-3,11-dioxo-2,3,4,7,8,9,10,11,12,13,14,15,16,17-tetradecahydro-1H-cyclopenta[a]phenanthren-16-yl 4-chlorobenzoate]", "values": [{"measurement": "IC50", "setting": "[1]", "value": "3570 ± 2580", "unit": "nM"}, {"measurement": "IC50", "setting": "[2]", "value": "4.67 ± 0.28", "unit": "µM"}]}, {"compound": "CC(=O)OC(C)(C)/C=C/C(=O)[C@](C)(O)C1[C@H](OC(=O)c2ccc(Br)cc2)C[C@@]2(C)C3CC=C4C(C[C@H](O)C(=O)C4(C)C)[C@]3(C)C(=O)C[C@]12C", "note": "(stereo partly drawn) [Compound 3k, (2S,9R,13R,14S,16R)-17-((R,E)-6-Acetoxy-2-hydroxy-6-methyl-3-oxohept-4-en-2-yl)-2-hydroxy-4,4,9,13,14-pentamethyl-3,11-dioxo-2,3,4,7,8,9,10,11,12,13,14,15,16,17-tetradecahydro-1H-cyclopenta[a]phenanthren-16-yl 4-bromobenzoate]", "values": [{"measurement": "IC50", "setting": "[1]", "value": "1930 ± 320", "unit": "nM"}, {"measurement": "IC50", "setting": "[2]", "value": "2.99 ± 2.06", "unit": "µM"}]}, {"compound": "COc1ccc(C(=O)O[C@@H]2C[C@@]3(C)C4CC=C5C(C[C@H](O)C(=O)C5(C)C)[C@]4(C)C(=O)C[C@]3(C)C2[C@@](C)(O)C(=O)/C=C/C(C)(C)OC(C)=O)cc1", "note": "(stereo partly drawn) [Compound 3l, (2S,9R,13R,14S,16R)-17-((R,E)-6-Acetoxy-2-hydroxy-6-methyl-3-oxohept-4-en-2-yl)-2-hydroxy-4,4,9,13,14-pentamethyl-3,11-dioxo-2,3,4,7,8,9,10,11,12,13,14,15,16,17-tetradecahydro-1H-cyclopenta[a]phenanthren-16-yl 4-methoxybenzoate]", "values": [{"measurement": "IC50", "setting": "[1]", "value": "2470 ± 470", "unit": "nM"}, {"measurement": "IC50", "setting": "[2]", "value": "3.71 ± 1.69", "unit": "µM"}]}, {"compound": "CC(=O)OC(C)(C)/C=C/C(=O)[C@](C)(O)C1[C@H](OC(=O)c2ccc([N+](=O)[O-])cc2)C[C@@]2(C)C3CC=C4C(C[C@H](O)C(=O)C4(C)C)[C@]3(C)C(=O)C[C@]12C", "note": "(stereo partly drawn) [Compound 3m, (2S,9R,13R,14S,16R)-17-((R,E)-6-Acetoxy-2-hydroxy-6-methyl-3-oxohept-4-en-2-yl)-2-hydroxy-4,4,9,13,14-pentamethyl-3,11-dioxo-2,3,4,7,8,9,10,11,12,13,14,15,16,17-tetradecahydro-1H-cyclopenta[a]phenanthren-16-yl 4-nitrobenzoate]", "values": [{"measurement": "IC50", "setting": "[1]", "value": "740 ± 150", "unit": "nM"}, {"measurement": "IC50", "setting": "[2]", "value": "0.92 ± 0.44", "unit": "µM"}]}, {"compound": "CC(=O)OC(C)(C)/C=C/C(=O)[C@](C)(O)C1[C@H](OC(=O)c2cccc(F)c2)C[C@@]2(C)C3CC=C4C(C[C@H](O)C(=O)C4(C)C)[C@]3(C)C(=O)C[C@]12C", "note": "(stereo partly drawn) [Compound 3n, (2S,9R,13R,14S,16R)-17-((R,E)-6-Acetoxy-2-hydroxy-6-methyl-3-oxohept-4-en-2-yl)-2-hydroxy-4,4,9,13,14-pentamethyl-3,11-dioxo-2,3,4,7,8,9,10,11,12,13,14,15,16,17-tetradecahydro-1H-cyclopenta[a]phenanthren-16-yl 3-fluorobenzoate]", "values": [{"measurement": "IC50", "setting": "[1]", "value": "2480 ± 520", "unit": "nM"}, {"measurement": "IC50", "setting": "[2]", "value": "4.05 ± 1.39", "unit": "µM"}]}, {"compound": "CC(=O)OC(C)(C)/C=C/C(=O)[C@](C)(O)C1[C@H](OC(=O)C=Cc2ccccc2)C[C@@]2(C)C3CC=C4C(C[C@H](O)C(=O)C4(C)C)[C@]3(C)C(=O)C[C@]12C", "note": "(stereo partly drawn) [Compound 3o, (2S,9R,13R,14S,16R)-17-((R,E)-6-Acetoxy-2-hydroxy-6-methyl-3-oxohept-4-en-2-yl)-2-hydroxy-4,4,9,13,14-pentamethyl-3,11-dioxo-2,3,4,7,8,9,10,11,12,13,14,15,16,17-tetradecahydro-1H-cyclopenta[a]phenanthren-16-yl cinnamate]", "values": [{"measurement": "IC50", "setting": "[1]", "value": "9590 ± 2380", "unit": "nM"}, {"measurement": "IC50", "setting": "[2]", "value": "3.31 ± 0.24", "unit": "µM"}]}]}
